Activity calls are given as the source filed them. The calls are words filed in the database; no cut-off is given here.

Data set [1] deals with Plasmodium berghei. The data set can be described thus: Antimalarial activity against chloroquine-sensitive Plasmodium berghei ATCC 50175 infected in ICR mouse assessed as parasitemia at 1.2 mg/kg/day, po pretreated for 4 days before infection and measured after 72 hrs (reference value: 4.6+/-0.21 %). In kind it is functional.
For data set [2], the system named is Plasmodium berghei. The data set can be described thus: Antimalarial activity against chloroquine-sensitive Plasmodium berghei ATCC 50175 infected in ICR mouse assessed as chemosuppression of parasitemia at 1.2 mg/kg/day, po pretreated for 4 days before infection and measured after 72 hrs. Format: functional.
Data set [3] concerns Plasmodium berghei. Briefly: Antimalarial activity against chloroquine-sensitive Plasmodium berghei ATCC 50175 infected in ICR mouse assessed as chemosuppression of parasitemia at 5 mg/kg/day, po administered 24 hrs post-treatment measured after 4 days. In kind it is functional.
The subject of data set [4] is Plasmodium berghei. The data set can be described thus: Antimalarial activity against chloroquine-sensitive Plasmodium berghei ATCC 50175 infected in ICR mouse assessed as parasitemia at 25 mg/kg/day, po administered 24 hrs post-treatment measured after 4 days (reference value: 56.3+/-0.16 %). Format: functional.
The test system of data set [5] is Plasmodium berghei. Briefly: Antimalarial activity against chloroquine-sensitive Plasmodium berghei ATCC 50175 infected in ICR mouse assessed as chemosuppression of parasitemia at 25 mg/kg/day, po administered 24 hrs post-treatment measured after 4 days. In kind it is functional.
Data set [6] concerns Plasmodium berghei. Briefly: Antimalarial activity against chloroquine-sensitive Plasmodium berghei ATCC 50175 infected in ICR mouse assessed as parasitemia at 5 mg/kg/day, po administered 24 hrs post-treatment measured after 4 days (reference value: 56.3+/-0.16 %). In kind it is functional.
For data set [7], the system named is Plasmodium berghei. Briefly: Antimalarial activity against chloroquine-sensitive Plasmodium berghei ATCC 50175 infected in ICR mouse assessed as chemosuppression of parasitemia at 25 mg/kg/day, po pretreated for 4 days before infection and measured after 72 hrs. Format: functional.
Data set [8] deals with Plasmodium berghei. Briefly: Antimalarial activity against chloroquine-sensitive Plasmodium berghei ATCC 50175 infected in ICR mouse assessed as chemosuppression of parasitemia at 10 mg/kg/day, po administered 24 hrs post-treatment measured after 4 days. Format: functional.
Data set [9] relates to Plasmodium berghei. Briefly: Antimalarial activity against chloroquine-sensitive Plasmodium berghei ATCC 50175 infected in ICR mouse assessed as parasitemia at 25 mg/kg/day, po pretreated for 4 days before infection and measured after 72 hrs (reference value: 4.6+/-0.21 %). In kind it is functional.
Data set [10] deals with Plasmodium berghei. Briefly: Antimalarial activity against chloroquine-sensitive Plasmodium berghei ATCC 50175 infected in ICR mouse assessed as reduced parasitemia at 25 mg/kg/day, po administered 24 hrs post-treatment for 4 day measured on day 7. In kind it is functional. Details: scale not given: the % may be the effect or the level left.
Data set [11] has as its system Plasmodium berghei. Briefly: Antimalarial activity against chloroquine-sensitive Plasmodium berghei ATCC 50175 infected in ICR mouse assessed as chemosuppression of parasitemia at 10 mg/kg/day, po pretreated for 4 days before infection and measured after 72 hrs. In kind it is functional.
The subject of data set [12] is Plasmodium berghei. Briefly: Antimalarial activity against chloroquine-sensitive Plasmodium berghei ATCC 50175 infected in ICR mouse assessed as reduced parasitemia at 5 mg/kg/day, po administered 24 hrs post-treatment for 4 day measured on day 7. The arrangement: scale not given: the % may be the effect or the level left. Format: functional.
Data set [13] deals with Plasmodium berghei. Briefly: Antimalarial activity against chloroquine-sensitive Plasmodium berghei ATCC 50175 infected in ICR mouse assessed as reduced parasitemia at 10 mg/kg/day, po administered 24 hrs post-treatment measured on day 3. The arrangement: scale not given: the % may be the effect or the level left. In kind it is functional.
The subject of data set [14] is Plasmodium berghei. Briefly: Antimalarial activity against chloroquine-sensitive Plasmodium berghei ATCC 50175 infected in ICR mouse assessed as parasitemia at 10 mg/kg/day, po administered 24 hrs post-treatment measured after 4 days (reference value: 56.3+/-0.16 %). In kind it is functional.
The test system of data set [15] is Plasmodium berghei. The data set can be described thus: Antimalarial activity against chloroquine-sensitive Plasmodium berghei ATCC 50175 infected in ICR mouse assessed as chemosuppression of parasitemia at 5 mg/kg/day, po pretreated for 4 days before infection and measured after 72 hrs. In kind it is functional.
Data set [16] deals with Mus musculus. The data set can be described thus: Toxicity against chloroquine-sensitive Plasmodium berghei ATCC 50175 infected ICR mouse at 5 to 25 mg/kg, po. Format: organism-based. Details: dose 5-25 mg/kg, route oral. To be noted: in vivo.
The test system of data set [17] is Plasmodium berghei. Briefly: Antimalarial activity against chloroquine-sensitive Plasmodium berghei ATCC 50175 infected in ICR mouse assessed as reduced parasitemia at 10 mg/kg/day, po administered 24 hrs post-treatment for 4 day measured on day 7. In kind it is functional. The arrangement: scale not given: the % may be the effect or the level left.
Data set [18] has as its system Plasmodium berghei. The data set can be described thus: Antimalarial activity against chloroquine-sensitive Plasmodium berghei ATCC 50175 infected in ICR mouse assessed as parasitemia at 10 mg/kg/day, po pretreated for 4 days before infection and measured after 72 hrs (reference value: 4.6+/-0.21 %). In kind it is functional.
Data set [19] relates to Plasmodium berghei. The data set can be described thus: Antimalarial activity against chloroquine-sensitive Plasmodium berghei ATCC 50175 infected ICR mouse assessed as increase in mouse survival at 5 to 25 mg/kg/day, po administered 24 hrs post-treatment. Format: functional.
Data set [20] deals with Plasmodium berghei. The data set can be described thus: Antimalarial activity against chloroquine-sensitive Plasmodium berghei ATCC 50175 infected in ICR mouse assessed as parasitemia at 5 mg/kg/day, po pretreated for 4 days before infection and measured after 72 hrs (reference value: 4.6+/-0.21 %). Format: functional.
The subject of data set [21] is Plasmodium berghei. The data set can be described thus: Antimalarial activity against chloroquine-sensitive Plasmodium berghei ATCC 50175 infected in ICR mouse assessed as reduced parasitemia at 5 mg/kg/day, po administered 24 hrs post-treatment measured on day 3. The arrangement: scale not given: the % may be the effect or the level left. Format: functional.
Data set [22] concerns Plasmodium berghei. Briefly: Antimalarial activity against chloroquine-sensitive Plasmodium berghei ATCC 50175 infected in ICR mouse assessed as reduced parasitemia at 25 mg/kg/day, po administered 24 hrs post-treatment measured on day 3. In kind it is functional. The arrangement: scale not given: the % may be the effect or the level left.
Data set [23] relates to Plasmodium berghei. Briefly: Antimalarial activity against chloroquine-sensitive Plasmodium berghei ATCC 50175 infected ICR mouse assessed as survival of mouse at 5 mg/kg/day, po for 4 days measured after 25 days. In kind it is functional, organism-based.
Data set [24] concerns Plasmodium berghei. The data set can be described thus: Antimalarial activity against chloroquine-sensitive Plasmodium berghei ATCC 50175 infected ICR mouse assessed as survival of mouse at 5 mg/kg/day, po for 4 days measured after 30 days. Format: functional, organism-based.
Data set [25] deals with Plasmodium berghei. Briefly: Antimalarial activity against chloroquine-sensitive Plasmodium berghei ATCC 50175 infected ICR mouse assessed as survival of mouse at 10 mg/kg/day, po for 4 days measured after 27 days. In kind it is functional, organism-based.
Data set [26] deals with Plasmodium berghei. The data set can be described thus: Antimalarial activity against chloroquine-sensitive Plasmodium berghei ATCC 50175 infected ICR mouse assessed as survival of mouse at 25 mg/kg/day, po for 4 days measured after 30 days. In kind it is functional, organism-based.

For the compound `CCc1nc(N)nc(N)c1-c1ccc(Cl)cc1` [PYRIMETHAMINE], the Activity in data set [1] is on record as 4.6%; in data set [2] it was 91.8%.

On to `OC[C@H]1O[C@@H](OC[C@@H]2O[C@H](Oc3cc(O)cc(/C=C/c4ccc(O)cc4)c3)[C@@H](O)[C@H](O)[C@H]2O)[C@H](O)[C@@H](O)[C@@H]1O`, for which the Activity in [3] is 44.3%; in data set [4], 15.2%; in [5], 73.2%; in data set [6] it was 31.3%; in data set [7], 80.1%; in [8], 60.2%. Moreover, the Activity stood at 11.3% in [9]; 89.4% in [10]; 70.6% in data set [11]; 73.6% in data set [12]; 18.75% in data set [13]; 22.4% in data set [14]. Besides, the Activity is on record as 58.7% in data set [15]; “Non-toxic” in data set [16]; 86.3% in data set [17]; 16.5% in data set [18]; 23.2% in [20]; 6.25% in [21]. In data set [22], the Activity is on record as 34.37%. Moreover, in [19], the Time was found to be 96 h.

As to `CCN(CC)CCCC(C)Nc1ccnc2cc(Cl)ccc12` (stereo not drawn) [CHLOROQUINE], the results for the Activity in data set [3] and in [6] were 89.3% and 6.2%, respectively. For the same compound, the outcome in data set [23], in data set [24], in data set [25] and in data set [26] was Active.

The values above are taken from ChEMBL document CHEMBL1629553, “Antimalarial activity of a new stilbene glycoside from Parthenocissus tricuspidata in mice” (Antimicrob Agents Chemother, 2008).
